“Also recorded” adds a separate entry of the source.
How the values were obtained:
[1] = system: human retinal endothelial cells; experiment: Actin stress fiber formation (rhodamine-phalloidin F-actin staining); format: cell-based; conditions: 15 minutes and 3 hours
Procedure: Passage 12 human retinal endothelial cells (ACBRI 181, Cell Systems Corporation (exclusive distributor for Applied Cell Biology Research Institute), Kirkland, Wash.) were seeded into 16-chamber glass slides coated with 5 μg/cm^2 fibronectin at 5000 cells per well in a total volume of 200 μl of EGM-2 medium (Lonza). The slides were cultured in a 37° C. incubator with 5% CO2 for 48 hours with daily medium changes. Then, the test compounds (DA-DKP, S1P and TNFα), diluted in Hanks Balanced Salt Solution (HBSS; Lonza), were added to give the following final concentrations: DA-DKP (100 μM) (Sigma), TNFα (1 ng/ml) (Sigma), and S1P (1 μM) (Sigma). The slides were incubated with the test compounds for 15 minutes or 3 hours in a 37° C. incubator with 5% CO2. After this incubation, the medium was aspirated, and the cells were fixed using 3.6% formaldehyde in phosphate buffered saline (PBS) for ten minutes at room temperature. All wells were then washed two times with 100 μl PBS. The cells were permeabilized using a 0.1% Triton X-100 in PBS for 5 minutes. All wells were then washed two times with 100 μl PBS, and 50 μl of a 1:40 dilution of rhodamine-phalloidin (Invitrogen) in PBS was added to the cells to stain for F-actin and left on the cells for 20 minutes at room temperature. All wells were then washed two times with 100 μl PBS. Then 100 μl PBS was added to each well and the cells were observed and photographed using an inverted microscope using a rhodamine (ex530/em590) filter.

[2] = system: human renal glomerular microvascular endothelial cells; experiment: ECIS transendothelial electrical resistance (TER), glomerular endothelial cells; format: cell-based
Procedure: Assays were performed to determine the effect of DA-DKP on transendothelial electrical resistance (TER) of human renal glomerular microvascular endothelial cells (ACBRI 128, Cell Systems Corporation (exclusive distributor for Applied Cell Biology Research Institute), Kirkland, Wash.). Electrical resistance was measured using the electric cell-substrate impedance sensing (ECIS) system (ECISZθ, obtained from Applied Biophysics) with 8-well multiple electrode plates (8W10E). Each well of the plates was coated with 5 μg/cm^2 fibronectin in HBSS by adding the fibronectin in a volume of 100 μl per well and incubating the plates for 30 minutes in a 37° C. incubator with 5% CO2. The fibronectin solution was removed, and 400 μl of EGM-2 culture medium (Lonza) was added to each well. The plates were connected to the ECISZθ system and were electrically stabilized. The EGM-2 medium was aspirated and replaced with 200 μl of EGM-2 culture medium containing 100,000 cells per well. The plates were reconnected to the ECISZθ system and incubated for 24 hours in a 37° C. incubator with 5% CO2. The EGM-2 medium was aspirated and replaced with 400 μl of fresh EGM-2 culture medium per well. The plates were reconnected to the ECISZθ system and incubated for 6 hours in a 37° C. incubator with 5% CO2. Solutions of the test compounds in HBSS were prepared and placed in the incubator to equilibrate. The test compounds were then added to appropriate wells at the following final concentrations: DA-DKP (100 μM) (Sigma) and TNFα (1 ng/ml) (Sigma). ECIS (resistance) was monitored for 90 hours.

[3] = system: RhoA; experiment: Rho activation assay (GLISA) in retinal endothelial cells; format: cell-based, human
Procedure: This experiment was performed using a commercially-available Rho activation assay (GLISA) purchased from Cytoskeleton, Denver, Colo., following the manufacturer's protocol. Briefly, passage 8 or 12 human retinal endothelial cells (ACBRI 181, Applied Cell Biology Research Institute, Kirkland, Wash.) were cultured on fibronectin-coated (1 μg/cm^2) 6-well tissue culture plates using EGM-2 culture medium (Lonza) for 24 hours in a 37° C. incubator with 5% CO2 (30,000 cells/well in total volume of 3 ml). Then, the medium was aspirated and replaced with Ultraculture medium supplemented with 0.1% fetal bovine serum, L-glutamine, sodium pyruvate, penicillin/streptomycin and ITSS (insulin, transferrin sodium selenium) (all from Lonza) to serum starve the cells and reduce the background level of RhoA. The cells were cultured for 24 hours in a 37° C. incubator with 5% CO2. Test compounds diluted in HBSS were placed in the incubator to equilibrate before addition to the cells. Then, 150 μl of each test compound was added to the appropriate culture wells, and the plates were incubated in the incubator for an additional 15 minutes. Then, thrombin was added to appropriate wells. After 1 minute, the cells were washed one time with 1.5 ml phosphate buffered saline and were then lysed with 100 μl GLISA lysis buffer supplemented with protease inhibitors. The extracts were scraped, transferred to microcentrifuge tubes and transferred to ice to preserve the active form of RhoA. All extracts were then cleared of debris by spinning at 10,000 rpms for 2 minutes at 4° C. The supernatants were transferred to new tubes and placed back on ice. Aliquots of each extract were removed for the GLISA assay and for protein determinations. All protein concentrations were within 10%, and the extracts were used at the achieved concentrations (equates to 15 total protein per well). The GLISA assay was performed using the reagents supplied in the kit.

[4] = system: human retinal endothelial cells; experiment: ECIS transendothelial electrical resistance (TER), retinal endothelial cells, 96-well plates; format: cell-based
Procedure: Assays were performed to determine the effect of DA-DKP on transendothelial electrical resistance (TER) of human renal glomerular microvascular endothelial cells (ACBRI 128, Cell Systems Corporation (exclusive distributor for Applied Cell Biology Research Institute), Kirkland, Wash.). Electrical resistance was measured using the electric cell-substrate impedance sensing (ECIS) system (ECISZθ, obtained from Applied Biophysics) with 8-well multiple electrode plates (8W10E). Each well of the plates was coated with 5 μg/cm^2 fibronectin in HBSS by adding the fibronectin in a volume of 100 μl per well and incubating the plates for 30 minutes in a 37° C. incubator with 5% CO2. The fibronectin solution was removed, and 400 μl of EGM-2 culture medium (Lonza) was added to each well. The plates were connected to the ECISZθ system and were electrically stabilized. […] ECIS (resistance) was monitored for 90 hours.
Assays were performed to determine the effect of DA-DKP on transendothelial electrical resistance (TER) of human retinal endothelial cells (ACBRI 181, Cell Systems Corporation (exclusive distributor for Applied Cell Biology Research Institute), Kirkland, Wash.). Electrical resistance was measured using the electric cell-substrate impedance sensing (ECIS) system (ECISZθ, obtained from Applied Biophysics) as described in Example 1, but using 96-well multiple electrode plates […].

[5] = passage 8 cells, 100 μM + 0.1 U/ml thrombin
[6] = passage 8 cells, 100 μM, no thrombin
[7] = passage 12 cells, 100 μM + 0.1 U/ml thrombin
[8] = passage 12 cells, 100 μM, no thrombin

C[C@@H]1NC(=O)[C@H](CC(=O)O)NC1=O [DA-DKP]
effect on cortical rings of S1P ([1]; 100 μM DA-DKP with S1P 1 μM): enhance the cortical rings; also recorded: strengthen the protective effects of S1P | effect on stress fibers caused by TNFα ([1]; 100 μM DA-DKP with TNFα 1 ng/ml): decreased the stress fiber formation and/or the thickness of the fibers; also recorded: reversed the formation of stress fibers induced by TNFα | effect on TNFα-induced drop in ECIS ([2]; 100 μM DA-DKP with TNFα 1 ng/ml, not significant): prevent some of the TNFα-induced drop in ECIS | ECIS increase persisting after treatment ([2]; 100 μM alone): 35 h | start of ECIS increase after treatment ([2]; 100 μM alone): about 5.0 hours | time at which ECIS increase reached significance after treatment ([2]; 100 μM alone): 12 h | ECIS (resistance) as compared to untreated cells ([2]; 100 μM alone, glomerular endothelial cells, monitored 90 hours): increase of ECIS | Mean OD (active RhoA) [3, 5]: 0.377 | Percent Inhibition vs. Thrombin [3, 5]: 40.04% | Mean OD (active RhoA) [3, 6]: 0.110 | Percent Inhibition vs. Untreated Control [3, 6]: −7.88% | Mean OD (active RhoA) [3, 7]: 0.752 | Percent Inhibition vs. Thrombin [3, 7]: 46.82% | Mean OD (active RhoA) [3, 8]: 0.389 | Percent Inhibition vs. Untreated Control [3, 8]: 14.52% | ECIS (TER) increase, comparison of doses ([4]; 100 μM): greatest increase | ECIS (TER) ([4]; doses 0.5 μM, 5.0 μM, 50 μM and 100): dose-dependent increase in ECIS (TER)

— patent US20200016152A1, “TREATMENT OF DISEASES” (Ampio Pharmaceuticals, Inc., priority 2010, published 2020)
